# Laboratory results taken from ChEMBL document CHEMBL4613295, “Pyrrolyl Pyrazoles as Non-Diketo Acid Inhibitors of the HIV-1 Ribonuclease H Function of Reverse Transcriptase” (ACS Med Chem Lett, 2020).
# Activity calls are given as the source filed them. The rule behind the calls is not given here.
# Experiments:
# [1] = target: T1, Human immunodeficiency virus type 1 reverse transcriptase (Human immunodeficiency virus 1, UniProt Q72547); test: Inhibition of RNase H activity of recombinant His-tagged HIV-1 group M subtype B reverse transcriptase p66/p51 expressed in Escherichia coli M15 using 18-nucleotide 3'-fluorescein-labeled RNA/5'-dabcyl-labeled DNA hybrid as substrate incubated for 1 hr; parameters: species or system HIV-1 M:B
# [2] = tested on: HIV-1 M:B; test: Selectivity index, ratio of IC50 for recombinat HIV-1 group M subtype B His-tagged reverse transcriptase p66 Y501A mutant expressed in Escherichia coli M15 to IC50 for RNase H activity of recombinant His-tagged HIV-1 group M subtype B reverse transcriptase p66/p51 expressed in Escherichia coli M15 …
# [3] = tested on: HIV-1 M:B; test: Selectivity index, ratio of IC50 for recombinat HIV-1 group M subtype B His-tagged reverse transcriptase p66 N474A mutant expressed in Escherichia coli M15 to IC50 for RNase H activity of recombinant His-tagged HIV-1 group M subtype B reverse transcriptase p66/p51 expressed in Escherichia coli M15 …
# [4] = tested on: Human immunodeficiency virus type 1 reverse transcriptase (Human immunodeficiency virus 1), Q72547 [K540A]; test: Inhibition of recombinat HIV-1 group M subtype B His-tagged reverse transcriptase p66 K540A mutant expressed in Escherichia coli M15; conditions: HIV-1 M:B
# [5] = tested on: HIV-1 M:B; test: Selectivity index, ratio of IC50 for recombinat HIV-1 group M subtype B His-tagged reverse transcriptase p66 Q475A mutant expressed in Escherichia coli M15 to IC50 for RNase H activity of recombinant His-tagged HIV-1 group M subtype B reverse transcriptase p66/p51 expressed in Escherichia coli M15 …
# [6] = target: T1, Human immunodeficiency virus type 1 reverse transcriptase; test: Inhibition of RNase H activity of recombinant HIV-1 reverse transcriptase p66/p51 expressed in Escherichia coli M15 using 5'-[gamma32P]ATP-labeled-tC5U RNA oligonucleotide/p12 DNA oligonucleotide hybrid as substrate incubated for 30 mins
# [7] = tested on: HIV-1 M:B; test: Selectivity index, ratio of IC50 for recombinat HIV-1 group M subtype B His-tagged reverse transcriptase p66 W535A mutant expressed in Escherichia coli M15 to IC50 for RNase H activity of recombinant His-tagged HIV-1 group M subtype B reverse transcriptase p66/p51 expressed in Escherichia coli M15 …
# [8] = Stability of compound in 90% human serum at 5 mM and 37 degree C measured after 3 hrs by ESI-RP-HPLC analysis; assay type: ADME, cell-free; conditions: 5000 µM
# [9] = Drug metabolism in 90% human serum assessed as retro-Claisen adduct derived 1-(1-(4-fluorobenzyl)-4-phenyl-1H-pyrrol-3-yl)ethanone metabolite formation at 5 mM and 37 degree C measured after 3 hrs by ESI-RP-HPLC analysis; assay type: ADME, cell-free; conditions: 5000 µM
# [10] = Selectivity index, ratio of CC50 for human HeLa cells expressing CD4-LTR-beta-gal assessed as reduction in cell viability measured after 24 hrs by CellTiter96 AQueous one solution cell proliferation assay to EC50 for HIV1 infected in human HeLa-CD4-LTR-betagal cells measured after 24 hrs by fluorescence based analysis; assay type: toxicity; conditions: read-out: Ratio CC50/EC50
# [11] = tested on: Human immunodeficiency virus type 1 reverse transcriptase (Human immunodeficiency virus 1), Q72547 [R448A]; test: Inhibition of recombinat HIV-1 group M subtype B His-tagged reverse transcriptase p66 R448A mutant expressed in Escherichia coli M15; conditions: HIV-1 M:B
# [12] = tested on: Human immunodeficiency virus type 1 reverse transcriptase (Human immunodeficiency virus 1), Q72547 [K451A]; test: Inhibition of recombinat HIV-1 group M subtype B His-tagged reverse transcriptase p66 K451A mutant expressed in Escherichia coli M15; conditions: HIV-1 M:B
# [13] = tested on: Human immunodeficiency virus 1; test: Antiviral activity against HIV1 infected in human HeLa-CD4-LTR-betagal cells assessed as inhibition of viral replication measured after 24 hrs by fluorescence based analysis; assay type: functional, organism-based; conditions: Human immunodeficiency virus 1, 24 h
# [14] = Cytotoxicity against human HeLa cells expressing CD4-LTR-beta-gal assessed as reduction in cell viability measured after 24 hrs by CellTiter96 AQueous one solution cell proliferation assay; assay type: cell-based
# [15] = tested on: Human immunodeficiency virus 1; test: Selectivity index, ratio of IC50 for wild type HIV1 subtype B NL4-3 6xHis-tagged integrase expressed in Escherichia coli BL21 (DE3) using DNA as substrate preincubated with enzyme for 1 hr followed by addition of recombinant 6xHis-tagged LEDGF/p75 expressed in Escherichia coli BL21 (DE3), DNA donor …
# [16] = target: Human immunodeficiency virus type 1 integrase (Human immunodeficiency virus 1, UniProt Q7ZJM1); test: Inhibition of wild type HIV1 subtype B NL4-3 6xHis-tagged integrase expressed in Escherichia coli BL21 (DE3) assessed as inhibition of 3'-processing and strand-transfer reactions using DNA as substrate preincubated with enzyme for 1 hr followed by addition of recombinant 6xHis-tagged LEDGF/p75 expressed in Escherichia coli BL21 (DE3), DNA donor substrate and DNA acceptor substrate and further …
# Human immunodeficiency virus type 1 integrase, sequence (Q7ZJM1 whole entry): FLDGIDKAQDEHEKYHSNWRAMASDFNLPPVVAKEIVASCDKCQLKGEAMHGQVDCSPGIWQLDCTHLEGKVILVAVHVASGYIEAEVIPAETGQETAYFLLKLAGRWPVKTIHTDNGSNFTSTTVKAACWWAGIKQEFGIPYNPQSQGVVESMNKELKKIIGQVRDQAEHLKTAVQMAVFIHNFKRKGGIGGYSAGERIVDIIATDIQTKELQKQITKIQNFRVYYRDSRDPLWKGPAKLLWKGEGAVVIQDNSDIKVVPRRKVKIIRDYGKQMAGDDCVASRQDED
compound,measurement,setting,value
CCOC(=O)c1cc(-c2cc[nH]c2)n[nH]1,IC50,[1],> 100 µM
O=C(O)c1cc(-c2cn(Cc3ccc(F)cc3)cc2-c2ccc(OCCCCc3ccccc3)cc2)n[nH]1,IC50,[1],0.27 µM
O=C(O)c1cc(-c2cn(Cc3ccc(F)cc3)cc2-c2ccc3ccccc3c2)n[nH]1,IC50,[1],13.7 µM
CCOC(=O)c1cc(-c2cn(C)cc2-c2ccccc2)n[nH]1,IC50,[1],> 100 µM
CCOC(=O)c1cc(-c2cn(Cc3ccc(F)cc3)cc2-c2ccc(OCCCCCc3ccccc3)cc2)n[nH]1,IC50,[1],25.8 µM
O=C(O)c1cc(-c2ccccc2-c2ccccc2)n[nH]1,IC50,[1],> 100 µM
CCOC(=O)/C(O)=C/C(=O)/C=C/c1cccn1Cc1ccccc1Cl,Ratio IC50,[2],> 5
same,Ratio IC50,[3],> 5
same,inhibition,[4],Active
same,Ratio IC50,[5],> 5
same,IC50,[6],7.3 µM
same,Ratio IC50,[7],> 5
CCOC(=O)c1cc(-c2cn(Cc3ccc(F)cc3)cc2-c2ccc(OCc3cccc4ccccc34)cc2)n[nH]1,IC50,[1],5.5 µM
O=C(O)/C(O)=C/C(=O)c1cn(Cc2ccc(F)cc2)cc1-c1ccccc1,Stability,[8],Unstable
same,Drug metabolism,[9],Metabolite_Detected
CCOC(=O)c1cc(-c2cn(Cc3cccc4ccccc34)cc2-c2ccccc2)n[nH]1,IC50,[1],9.4 µM
CCOC(=O)c1cc(-c2c[nH]cc2-c2ccccc2)n[nH]1,IC50,[1],> 100 µM
O=C(O)c1cc(-c2cn(Cc3cccc4ccccc34)cc2-c2ccccc2)n[nH]1,IC50,[1],25.3 µM
CCOC(=O)c1cc(-c2cn(CCCCc3ccccc3)cc2-c2ccccc2)n[nH]1,IC50,[1],97 µM
CCOC(=O)c1cc(-c2ccccc2)[nH]n1,IC50,[1],> 100 µM
CCOC(=O)c1cc(-c2cn(Cc3cccc4ccccc34)cc2-c2ccc(OCC(=O)Nc3ccccc3)cc2)n[nH]1,IC50,[1],7.9 µM
O=C(O)c1cc(-c2cn(Cc3ccc(F)cc3)cc2-c2ccc(OCc3ccccc3)cc2)n[nH]1,IC50,[1],3.21 µM
O=C(O)c1cc(-c2cn(Cc3cccc4ccccc34)cc2-c2ccc(OCCCCc3ccccc3)cc2)n[nH]1,IC50,[1],2.38 µM
CCOC(=O)c1cc(-c2cn(Cc3cccc4ccccc34)cc2-c2ccc(OCCCCc3ccccc3)cc2)n[nH]1,IC50,[1],8.5 µM
O=C(O)c1cc(-c2cc[nH]c2)n[nH]1,IC50,[1],> 100 µM
O=C(COc1ccc(-c2cn(Cc3ccc(F)cc3)cc2-c2cc(C(=O)O)[nH]n2)cc1)Nc1ccccc1,IC50,[1],23 µM
O=C(O)c1cc(-c2cn(Cc3ccc(F)cc3)cc2-c2ccc(OCc3cccc4ccccc34)cc2)n[nH]1,IC50,[1],4.5 µM
O=C(O)c1cc(-c2ccn(Cc3ccc(F)cc3)c2)n[nH]1,IC50,[1],> 100 µM
O=C(O)c1cc(-c2cn(CCCCc3ccccc3)cc2-c2ccccc2)n[nH]1,IC50,[1],63 µM
CCOC(=O)c1cc(-c2cn(Cc3cccc4ccccc34)cc2-c2ccc(OCc3cccc4ccccc34)cc2)n[nH]1,IC50,[1],4.15 µM
CCOC(=O)c1cc(-c2cn(Cc3ccc(F)cc3)cc2-c2ccc(OCC(=O)Nc3ccc(C(=O)O)cc3)cc2)n[nH]1,IC50,[1],8.1 µM
O=C(O)c1cc(-c2cn(Cc3ccc(F)cc3)cc2-c2ccc(OCCCCCc3ccccc3)cc2)n[nH]1,IC50,[1],9.2 µM
CCOC(=O)c1cc(-c2cn(Cc3ccc(F)cc3)cc2-c2ccc(OCC(=O)Nc3ccccc3)cc2)n[nH]1,IC50,[1],6.8 µM
CCOC(=O)c1cc(-c2ccccc2-c2ccccc2)n[nH]1,IC50,[1],> 100 µM
O=C(O)c1cc(-c2cn(Cc3ccc(F)cc3)cc2-c2ccccc2)n[nH]1,Stability,[8],Stable
same,IC50,[1],75 µM
O=C(COc1ccc(-c2cn(Cc3ccc(F)cc3)cc2-c2cc(C(=O)O)[nH]n2)cc1)Nc1ccc(C(=O)O)cc1,IC50,[1],70 µM
O=C(COc1ccc(-c2cn(Cc3cccc4ccccc34)cc2-c2cc(C(=O)O)[nH]n2)cc1)Nc1ccccc1,IC50,[1],5.8 µM
Cc1cc(C(=O)O)n[nH]1,IC50,[1],> 100 µM
CCOC(=O)c1cc(-c2ccn(Cc3ccc(F)cc3)c2)n[nH]1,IC50,[1],> 100 µM
CCOC(=O)c1cc(-c2cn(Cc3ccc(F)cc3)cc2-c2ccc3ccccc3c2)n[nH]1,Ratio IC50,[2],> 5
same,Ratio IC50,[3],> 5
same,IC50,[1],9.4 µM
same,inhibition,[4],inactive
same,selectivity ratio at 24 h,[10],> 10
same,Ratio IC50,[5],> 5
same,inhibition,[11],inactive
same,inhibition,[12],inactive
same,EC50,[13],4 to 41 µM
same,CC50 at 24 h,[14],> 200 µM
same,Ratio IC50,[15],> 10.6
same,Ratio IC50,[7],> 5
CCOC(=O)c1cc(-c2cn(Cc3ccc(F)cc3)cc2-c2ccc(OCCCCc3ccccc3)cc2)n[nH]1,Ratio IC50,[2],> 5
same,Ratio IC50,[3],> 5
same,IC50,[1],17.8 µM
same,inhibition,[4],inactive
same,selectivity ratio at 24 h,[10],> 10
same,Ratio IC50,[5],> 5
same,inhibition,[11],inactive
same,inhibition,[12],inactive
same,EC50,[13],4 to 41 µM
same,CC50 at 24 h,[14],> 200 µM
same,Ratio IC50,[15],> 5.6
same,Ratio IC50,[7],> 5
CCOC(=O)c1cc(C)n[nH]1,IC50,[1],> 100 µM
O=C(O)c1cc(-c2cn(Cc3cccc4ccccc34)cc2-c2ccc(OCc3cccc4ccccc34)cc2)n[nH]1,IC50,[1],1.73 µM
CCOC(=O)/C(O)=C/C(=O)c1cn(Cc2ccc(F)cc2)cc1-c1ccccc1,Stability,[8],Unstable
same,Drug metabolism,[9],Metabolite_Detected
Cn1cc(-c2ccccc2)c(-c2cc(C(=O)O)[nH]n2)c1,IC50,[1],> 100 µM
O=C(O)c1cc(-c2ccccc2)n[nH]1,IC50,[1],> 100 µM
O=C(O)c1cc(-c2c[nH]cc2-c2ccccc2)n[nH]1,IC50,[1],> 100 µM
CCOC(=O)c1cc(-c2cn(Cc3ccc(F)cc3)cc2-c2ccccc2)n[nH]1,Ratio IC50,[2],> 5
same,Ratio IC50,[3],> 5
same,Stability,[8],Stable
same,IC50,[1],14.3 µM
same,inhibition,[4],inactive
same,Ratio IC50,[5],> 5
same,inhibition,[11],inactive
same,inhibition,[12],Active
same,IC50,[16],75 µM
same,EC50,[13],4 µM
same,Ratio IC50,[15],5
same,Ratio IC50,[7],> 5
CCOC(=O)c1cc(-c2cn(Cc3ccc(F)cc3)cc2-c2ccc(OCc3ccccc3)cc2)n[nH]1,Ratio IC50,[2],> 5
same,Ratio IC50,[3],> 5
same,IC50,[1],5.4 µM
same,inhibition,[4],inactive
same,Ratio IC50,[5],> 5
same,inhibition,[11],inactive
same,inhibition,[12],inactive
same,EC50,[13],4 to 41 µM
same,Ratio IC50,[15],> 18.5
same,Ratio IC50,[7],> 5
